Reference: ChEMBL document CHEMBL1151551, “An acid-cleavable linker stable at neutral pH that releases doxorubicin at lysosomal pH” (Bioorg Med Chem Lett, 1993)

Columns and labels:
Mus musculus [1] = organism: Mus musculus; assay: The compound was evaluated for half life (release of DOX) […] at 37 degree Celsius at the pH 5.; format: ADME
Mus musculus [2] = organism: Mus musculus; assay: The compound was evaluated for half life (release of DOX) […] at 37 degree Celsius at the pH 7.; format: ADME

T1/2 (Mus musculus [1]) | T1/2 (Mus musculus [2]) | SMILES
90 h | > 160 days | CCCCNC(=O)C1(C)CC(C)(C(=O)O)CC(C)(C(=O)NC2CC(O[C@H]3C[C@](O)(C(=O)CO)Cc4c(O)c5c(c(O)c43)C(=O)c3c(OC)cccc3C5=O)OC(C)C2O)C1 (some centres not stated)
> 174 h | > 174 days | CCCCN(C)C(=O)C1(C)CC(C)(C(=O)O)CC(C)(C(=O)N(C(=O)C(F)(F)F)C2CC(O[C@H]3C[C@](O)(C(=O)CO)Cc4c(O)c5c(c(O)c43)C(=O)c3c(OC)cccc3C5=O)OC(C)C2O)C1 (some centres not stated)
30 h |  | COc1cccc2c1C(=O)c1c(O)c3c(c(O)c1C2=O)C[C@@](O)(C(=O)CO)C[C@@H]3OC1CC(NC(=O)C2(C)CC(C)(C(=O)O)CC(C)(C(=O)O)C2)C(O)C(C)O1 (some centres not stated)
40 h | > 100 days | COC(=O)C1(C)CC(C)(C(=O)O)CC(C)(C(=O)NC2CC(O[C@H]3C[C@](O)(C(=O)CO)Cc4c(O)c5c(c(O)c43)C(=O)c3c(OC)cccc3C5=O)OC(C)C2O)C1 (some centres not stated)
